Assay results: paper PMC4431592 (Journal of medicinal chemistry, 2015)
One block for each compound: values may come before it.

Columns and labels:
GAK [1] = target: T1, GAK (Homo sapiens, UniProt O14976); assay: KINOMEscan active site-directed competition binding assay, GAK
T1 sequence (O14976 1-1311): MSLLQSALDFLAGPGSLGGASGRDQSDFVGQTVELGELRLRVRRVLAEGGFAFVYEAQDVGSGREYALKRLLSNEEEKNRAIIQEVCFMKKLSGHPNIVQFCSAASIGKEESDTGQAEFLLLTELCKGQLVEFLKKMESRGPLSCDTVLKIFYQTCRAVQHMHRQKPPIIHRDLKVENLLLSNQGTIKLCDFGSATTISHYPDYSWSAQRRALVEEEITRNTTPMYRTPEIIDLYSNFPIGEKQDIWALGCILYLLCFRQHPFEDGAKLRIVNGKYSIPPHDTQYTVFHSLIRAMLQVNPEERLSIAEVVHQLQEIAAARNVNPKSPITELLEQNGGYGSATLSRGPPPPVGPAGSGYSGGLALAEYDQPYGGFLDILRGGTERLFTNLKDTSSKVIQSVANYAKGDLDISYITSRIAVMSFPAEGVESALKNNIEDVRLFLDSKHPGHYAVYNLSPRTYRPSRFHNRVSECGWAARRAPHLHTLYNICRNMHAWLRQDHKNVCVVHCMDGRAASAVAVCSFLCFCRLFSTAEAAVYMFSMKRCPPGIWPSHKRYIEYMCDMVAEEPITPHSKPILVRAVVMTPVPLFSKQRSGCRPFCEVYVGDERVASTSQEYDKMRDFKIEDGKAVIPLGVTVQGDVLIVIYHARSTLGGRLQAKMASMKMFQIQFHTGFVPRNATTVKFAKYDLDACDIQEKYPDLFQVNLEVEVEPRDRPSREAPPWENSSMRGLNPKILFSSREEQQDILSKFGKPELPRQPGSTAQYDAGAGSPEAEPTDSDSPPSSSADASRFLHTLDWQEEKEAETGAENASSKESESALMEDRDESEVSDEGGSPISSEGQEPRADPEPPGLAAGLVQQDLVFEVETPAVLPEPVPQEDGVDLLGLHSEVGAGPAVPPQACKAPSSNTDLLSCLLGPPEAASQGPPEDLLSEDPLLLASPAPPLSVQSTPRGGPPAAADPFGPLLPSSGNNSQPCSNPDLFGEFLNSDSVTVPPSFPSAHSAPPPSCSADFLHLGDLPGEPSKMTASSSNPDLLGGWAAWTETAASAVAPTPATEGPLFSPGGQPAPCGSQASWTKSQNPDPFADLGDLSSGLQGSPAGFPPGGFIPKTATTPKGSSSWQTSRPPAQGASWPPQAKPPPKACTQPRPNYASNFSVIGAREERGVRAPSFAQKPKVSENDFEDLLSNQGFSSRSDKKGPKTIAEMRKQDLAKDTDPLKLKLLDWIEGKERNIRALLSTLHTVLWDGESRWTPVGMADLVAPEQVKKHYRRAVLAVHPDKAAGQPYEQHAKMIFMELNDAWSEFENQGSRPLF

EGFR = EGFR (Homo sapiens, UniProt P00533); assay: EGFR binding / anti-EGFR activity
EGFR, sequence (P00533 25-1210): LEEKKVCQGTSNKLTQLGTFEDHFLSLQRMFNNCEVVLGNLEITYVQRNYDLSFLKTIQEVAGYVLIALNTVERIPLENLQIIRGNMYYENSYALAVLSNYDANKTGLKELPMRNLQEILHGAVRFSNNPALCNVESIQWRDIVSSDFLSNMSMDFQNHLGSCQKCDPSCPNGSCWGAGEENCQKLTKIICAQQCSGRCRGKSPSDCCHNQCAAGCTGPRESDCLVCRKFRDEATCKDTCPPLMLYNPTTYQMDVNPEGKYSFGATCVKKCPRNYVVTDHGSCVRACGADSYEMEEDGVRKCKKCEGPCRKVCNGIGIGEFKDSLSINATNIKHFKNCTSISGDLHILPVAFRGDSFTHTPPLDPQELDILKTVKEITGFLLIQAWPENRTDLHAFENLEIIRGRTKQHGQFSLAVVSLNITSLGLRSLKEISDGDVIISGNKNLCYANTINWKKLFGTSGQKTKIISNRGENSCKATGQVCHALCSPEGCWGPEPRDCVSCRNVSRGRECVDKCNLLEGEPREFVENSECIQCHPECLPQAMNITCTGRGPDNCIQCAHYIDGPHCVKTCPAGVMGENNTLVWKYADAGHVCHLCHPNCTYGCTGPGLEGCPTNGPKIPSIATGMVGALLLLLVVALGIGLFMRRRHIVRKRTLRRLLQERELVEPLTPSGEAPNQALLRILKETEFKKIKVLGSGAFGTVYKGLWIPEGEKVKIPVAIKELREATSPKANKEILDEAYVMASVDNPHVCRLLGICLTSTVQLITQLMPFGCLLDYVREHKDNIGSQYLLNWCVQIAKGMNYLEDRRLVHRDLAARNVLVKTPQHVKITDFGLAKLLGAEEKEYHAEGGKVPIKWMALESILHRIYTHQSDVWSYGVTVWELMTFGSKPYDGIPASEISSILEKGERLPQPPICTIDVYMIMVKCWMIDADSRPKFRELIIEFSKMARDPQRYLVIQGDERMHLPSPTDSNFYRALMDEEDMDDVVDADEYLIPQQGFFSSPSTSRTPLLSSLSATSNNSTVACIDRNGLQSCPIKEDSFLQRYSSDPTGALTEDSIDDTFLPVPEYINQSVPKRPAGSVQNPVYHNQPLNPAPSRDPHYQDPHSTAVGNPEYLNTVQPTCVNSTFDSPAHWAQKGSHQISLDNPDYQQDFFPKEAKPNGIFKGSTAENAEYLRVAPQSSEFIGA

HCV RNA replication = HCV RNA replication by luciferase assay after electroporation; format: cell-based, hepatitis C virus; conditions: 72 hours postelectroporation, treated daily
AP2M1 phosphorylation = AP2M1 phosphorylation by Western analysis in Huh-7.5 cells; format: cell-based, human; conditions: calyculin A, versus DMSO control
Huh-7.5 cells = assay: Cellular viability, alamarBlue-based assay; conditions: HCVpp entry assay, 4 hour treatment
GAK [2] = target: T1, GAK; conditions: cited from earlier work

Compound: COc1cc(-c2cnc3c(N4CCOCC4)snc3c2)cc(OC)c1OC [Compound 12g, 4-(6-(3,4,5-Trimethoxyphenyl)isothiazolo[4,3-b]pyridin-3-yl)morpholine]
anti-EGFR activity (in words) (EGFR): lack anti-EGFR activity | effect on HCV RNA replication (in words) (HCV RNA replication): did not affect HCV RNA replication | p-AP2M1 to AP2M1 ratio (in words) (AP2M1 phosphorylation): reduced | effect on cellular viability (in words) (Huh-7.5 cells): minimal effect on cellular viability

Compound: COc1cc(-c2cnc3c(N4CCOCC4)snc3c2)ccc1N [Compound 12i, 2-Methoxy-4-(3-morpholinoisothiazolo[4,3-b]pyridin-6-yl)aniline]
anti-EGFR activity (in words) (EGFR): lack anti-EGFR activity | effect on HCV RNA replication (in words) (HCV RNA replication): did not affect HCV RNA replication

Compound: COc1ccc(-c2cnc3c(NCCc4ccccc4)snc3c2)cc1OC [Compound 13k, 6-(3,4-dimethoxyphenyl)-N-phenethylisothiazolo[4,3-b]pyridin-3-amine]
GAK affinity (in words) (GAK [1]): completely lacking GAK affinity

Compound: CCOc1cc2ncc(C#N)c(Nc3ccc(F)c(Cl)c3)c2cc1NC(=O)/C=C/CN(C)C [pelitinib]
Kd (in words) (GAK [2]): low nanomolar range

Next, values leading:

GAK affinity (in words) (GAK [1]): equipotent
Compound: c1csc(-c2cnc3c(N4CCOCC4)snc3c2)c1 [Compound 12a, 4-(6-(Thiophen-2-yl)isothiazolo[4,3-b]pyridin-3-yl)morpholine]

GAK affinity (in words) (GAK [1]): lacks any affinity
Compound: COc1ccc(-c2cnc3c(N4CCOCC4)snc3c2)c(OC)c1 [Compound 12c, 4-(6-(2,4-Dimethoxyphenyl)isothiazolo[4,3-b]pyridin-3-yl)morpholine]

GAK affinity (in words) (GAK [1]): completely inactive
Compound: c1cc2c(cc1-c1cnc3c(N4CCOCC4)snc3c1)OCO2 [Compound 12f, 4-(6-(Benzo[d][1,3]dioxol-5-yl)isothiazolo[4,3-b]pyridin-3-yl)morpholine]
